Laboratory results: patent US20230382904A1, “SUBSTITUTED 4-([1,2,4]TRIAZOLO[1,5-a]PYRIDIN-6-YL)THIOPHENE-2-CARBOXAMIDE DERIVATIVES AND USE THEREOF” (The Johns Hopkins University, priority 2020, published 2023)

Legend:
DLK = DLK (Homo sapiens (Human), UniProt Q12852); experiment: DLK biochemical assay (TR-FRET, MKK7 phosphorylation)
Description: DLK assay is a biochemical assay format designed to screen for inhibitors of DLK. Enzymatic activity of DLK was measured by monitoring phosphorylation of the physiological substrate MKK7 (MAP2K7, Dual specificity mitogen-activated protein kinase kinase 7). Phosphorylation was detected by a TR-FRET system whereby His-tagged MKK7 was labeled by a XL665-labeled anti-His antibody (FRET acceptor, emission 665 nm). DLK phosphorylates MKK7 at T275/S277, which was detected by an Eu-labeled anti-phospho-MKK7 (T275/S277) antibody (F RET donor, excitation 340 nm). Phosphorylation of MKK7 results in an increased TR-FRET signal (Ratio XL665-channel/Eu-channel) and inhibition of enzymatic activity of DLK decreases the TR-FRET signal.
Assay Protocol for 1536 MTP format: test compounds were predispensed (60 nl) in test plates; +3 μl DLK solution (10 nM DLK, catalytic domain, Carna Biosiences, 0.6 mM DTT in assay buffer); +2 μl substrate solution (15 nM MKK7, LDB; 60 μM ATP; 0.4 mM DTT in assay buffer); 90 min incubation at RT; +2 μl detection mix (5 nM XL665-labeled anti-His antibody, Cisbio; 0.1 nM Eu-labeled anti-phospho-MKK7 (T275/S277), Cisbio/Millipore in detection buffer); 16 h incubation at 37° C.; endpoint measurement BMG (HTRF).
Assay Protocol for 384 low volume MTP format: 1 μl of test compounds were pipetted into test plate; +5 μl DLK solution (10 nM DLK, catalytic domain, Carna Biosiences in assay buffer); +5 μl substrate solution (15 nM MKK7, LDB; 60 μM ATP, in assay buffer); 90 min incubation at RT; +9 μl detection mix (20 nM XL665-labeled anti-His antibody, Cisbio; 0.4 nM Eu-labeled anti-phospho-MKK7 (T275/S277), Cisbio/Millipore in detection buffer); 16 h incubation at 4° C.; endpoint measurement BMG (HTRF).
(§1) All indicated concentrations final concentrations.
Assay buffer (384 format): 50 mM Hepes pH 7.5, 10 mM MgCl2, 1 mM EGTA, 1 mM DTT, 0,01% Triton X-100, 0.01% BSA, 1:500 Smart Block.
(§2) Detection buffer: 25 mM Tris/HCl pH 7.5, 100 mM EDTA, 100 mM NaCl, 200 mM KF, 0.01% Tween 20, 1:500 Smart Block.

LZK = LZK (Homo sapiens (Human), UniProt O43283); experiment: LZK biochemical assay (TR-FRET, MKK7 phosphorylation)
Description: LZK assay is a biochemical assay format designed to screen for inhibitors of LZK. Enzymatic activity of LZK was measured by monitoring phosphorylation of the physiological substrate MKK7 (MAP2K7, Dual specificity mitogen-activated protein kinase kinase 7). Phosphorylation was detected by a TR-FRET system whereby His-tagged MKK7 was labeled by a XL665-labeled anti-His antibody (FRET acceptor, emission 665 nm). LZK phosphorylates MKK7 at T275/S277 which were detected by an Eu-labeled anti-phospho-MKK7 (T275/S277) antibody (FRET donor, excitation 340 nm). Phosphorylation of MKK7 results in an increased TR-FRET signal (Ratio XL665-channel/Eu-channel) and inhibition of enzymatic activity of LZK decreases the TR-FRET signal.
Assay Protocol for 384 low volume MTP format: 1 μl of test compound was pipetted into test plate; +5 μl LZK solution (10 nM LZK, catalytic domain, Carna Biosiences in assay buffer); +5 μl substrate solution (15 nM MKK7, LDB; 15 μM ATP, in assay buffer); 90 min incubation at RT; +5 μl detection mix (20 nM XL665-labeled anti-His antibody, Cisbio; 0.4 nM Eu-labeled anti-phospho-MKK7 (T275/S277), Cisbio/Millipore in detection buffer), 16 h incubation at 32° C.; endpoint measurement BMG (HTRF).
as §1
Assay buffer (384 format): 50 mM Hepes pH 7.5, 10 mM MgCl2, 1 mM EGTA, 1 mM DTT, 0.01% Triton X-100, 0.01% BSA, 1:500 Smart Block.
as §2

Chain of LZK (O43283 168-409): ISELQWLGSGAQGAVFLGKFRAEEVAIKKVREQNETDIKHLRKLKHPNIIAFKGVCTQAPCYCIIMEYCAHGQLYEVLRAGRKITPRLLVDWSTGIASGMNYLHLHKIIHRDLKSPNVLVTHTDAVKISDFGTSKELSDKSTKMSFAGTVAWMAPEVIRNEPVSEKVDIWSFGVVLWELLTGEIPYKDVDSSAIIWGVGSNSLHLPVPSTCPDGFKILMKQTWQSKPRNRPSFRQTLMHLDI
Chain of DLK (Q12852 1-520): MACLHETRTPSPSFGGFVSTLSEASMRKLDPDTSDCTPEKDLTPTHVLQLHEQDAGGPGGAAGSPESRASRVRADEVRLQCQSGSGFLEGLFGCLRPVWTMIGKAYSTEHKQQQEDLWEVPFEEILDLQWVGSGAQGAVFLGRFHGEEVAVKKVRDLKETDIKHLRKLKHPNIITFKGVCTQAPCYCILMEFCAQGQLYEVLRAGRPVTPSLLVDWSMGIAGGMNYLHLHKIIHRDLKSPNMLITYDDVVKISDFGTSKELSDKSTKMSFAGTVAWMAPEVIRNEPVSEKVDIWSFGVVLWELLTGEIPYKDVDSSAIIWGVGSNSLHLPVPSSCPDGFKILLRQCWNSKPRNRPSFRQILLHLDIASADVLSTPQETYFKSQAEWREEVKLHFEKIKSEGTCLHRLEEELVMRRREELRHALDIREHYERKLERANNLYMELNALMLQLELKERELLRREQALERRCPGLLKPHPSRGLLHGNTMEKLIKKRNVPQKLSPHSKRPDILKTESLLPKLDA

IC50 (DLK) [nM]	IC50 (LZK) [nM]	SMILES
69	1900	CC[C@H](NC(=O)c1cc(-c2cc(-c3cnn(CC(F)(F)F)c3)n3nc(N)nc3c2)cs1)c1ccc(F)cc1 [Compound 402]
230	1900	C[C@H](NC(=O)c1cc(-c2ccn3nc(N)nc3c2)cs1)c1ccc(F)cc1 [Compound 369]
530	7000	Nc1nc2ccc(-c3csc(C(=O)NC4(c5ccc(F)cc5)COC4)c3)cn2n1 [Compound 314]
280	6100	Nc1nc2c(C(=O)NCC(F)(F)F)cc(-c3csc(C(=O)NCc4ccccc4)c3)cn2n1 [Compound 53]
55	2000	C[C@H](NC(=O)c1cc(-c2cc(C(=O)NC3CCC3)c3nc(N)nn3c2)cs1)c1ccc(C(F)(F)F)cc1 [Compound 92]
21	100	CC(C)NC(=O)c1cc(-c2csc(C(=O)N[C@@H](C)c3ccc(F)cc3)c2)cc2nc(N)nn12 [Compound 147]
930	8300	CC[C@@H](NC(=O)c1cc(-c2csc(C(=O)N[C@@H](C)c3ccc(F)cc3)c2)cn2nc(N)nc12)C(F)(F)F [Compound 127]
11	41	CC[C@H](C)NC(=O)c1cc(-c2csc(C(=O)NCc3ccc(F)cc3)c2)cn2nc(N)nc12 [Compound 93]
2.2	14	CC[C@H](C)NC(=O)c1cc(-c2csc(C(=O)N[C@@H](COC)c3ccccc3)c2)cn2nc(N)nc12 [Compound 116]
1000	> 30000	Nc1nc2ccc(-c3csc(C(=O)NC4CCCC(C(F)(F)F)C4)c3)cn2n1 (stereo not shown) [Compound 176]
19	340	CC[C@H](NC(=O)c1cc(-c2cc(C(=O)NC(C)(C)C)c3nc(N)nn3c2)cs1)c1ccccc1 [Compound 84]
37.5	590	C[C@@H](CO)NC(=O)c1cc(-c2csc(C(=O)NC3CCCCC3)c2)cn2nc(N)nc12 [Compound 39]
73	4200	CC(C)NC(=O)c1cc(-c2csc(C(=O)N[C@@H](C)c3ccc(C(F)(F)F)cc3)c2)cn2nc(N)nc12 [Compound 83]
33	560	CCNC(=O)c1cc(-c2csc(C(=O)N[C@@H](C)c3ccc(F)cc3)c2)cc2nc(N)nn12 [Compound 158]
6.32	122	CC(C)NC(=O)c1cc(-c2csc(C(=O)N[C@@H](C)c3ccccc3)c2)cn2nc(N)nc12 [Compound 20]
14	120	COC[C@H](NC(=O)c1cc(-c2cc(C(=O)NC(C)C)c3nc(N)nn3c2)cs1)c1ccc(F)cc1 [Compound 130]
1200	> 30000	COc1ccc2c(c1)nc(CNC(=O)c1cc(-c3ccc4nc(N)nn4c3)cs1)n2C [Compound 260]
28	730	CC(C)NC(=O)c1cc(-c2csc(C(=O)NC3CC(C)(C)Oc4ccccc43)c2)cn2nc(N)nc12 (stereo not shown) [Compound 132]
620	7400	COc1cccc(C(CCO)NC(=O)c2cc(-c3ccc4nc(N)nn4c3)cs2)c1 (stereo not shown) [Compound 290]
300	630	CC(C)(C)NC(=O)c1cc(-c2csc(C(=O)NCc3nc4ccccc4o3)c2)cn2nc(N)nc12 [Compound 23]
380	4600	Nc1nc2ccc(-c3csc(C(=O)NCc4ccccc4)c3)cn2n1 [Compound 168]
62	1600	CC[C@H](NC(=O)c1cc(-c2ccc3nc(N)nn3c2)cs1)c1ccccc1 [Compound 324]
1950	24000	Nc1nc2ccc(-c3csc(C(=O)NC4CCCOC4)c3)cn2n1 (stereo not shown) [Compound 184]
6.3	52	CC[C@H](C)NC(=O)c1cc(-c2csc(C(=O)N[C@@H](C)c3ccc(F)cc3)c2)cc2nc(N)nn12 [Compound 160]

IC50 (DLK) [nM]	IC50 (LZK) [nM]	SMILES
220	1250	COc1cccc(CNC(=O)c2cc(-c3cc(C(=O)NC4CCNC4)c4nc(N)nn4c3)cs2)c1 (stereo not shown) [Compound 37]
750	2800	COCc1cc(-c2csc(C(=O)NCc3ccc(F)cc3)c2)cn2nc(N)nc12 [Compound 387]
630	2600	CC[C@H](NC(=O)c1cc(-c2csc(C(=O)N[C@@H](C)c3ccc(F)cc3)c2)cn2nc(N)nc12)C(F)(F)F [Compound 144-5]
9550	> 30000	CN(C(=O)c1cc(-c2ccc3nc(N)nn3c2)cs1)C1CCCCC1 [Compound 175]
3.7	51	CC[C@H](NC(=O)c1cc(-c2cc(C(=O)N[C@@H](C)CC)c3nc(N)nn3c2)cs1)c1ccccc1 [Compound 89]
210	> 30000	C[C@H](NC(=O)c1cc(-c2ccc3nc(N)nn3c2)cs1)c1ccc(C(F)(F)F)cc1 [Compound 353]
32	280	CC(C)NC(=O)c1cc(-c2csc(C(=O)N[C@H](C)c3ccc(F)cc3)c2)cc2nc(N)nn12 [Compound 153]
5.15	87	CC[C@H](NC(=O)c1cc(-c2cc(C(=O)NC(C)C)c3nc(N)nn3c2)cs1)c1ccccc1 [Compound 76]
640	6300	Cc1csc(CNC(=O)c2cc(-c3ccc4nc(N)nn4c3)cs2)n1 [Compound 240]
24000	> 30000	Cc1sc(C(=O)NCc2nc3ccccc3o2)cc1-c1ccc2nc(N)nn2c1 [Compound 313]
140	3500	CC(NC(=O)c1cc(-c2ccc3nc(N)nn3c2)cs1)c1nc2ccccc2n1C (stereo not shown) [Compound 335]
76	1400	COC[C@H](C)NC(=O)c1cc(-c2csc(C(=O)N[C@@H](C)c3ccccc3)c2)cn2nc(N)nc12 [Compound 70]
2300	> 30000	COC[C@H](C)NC(=O)c1cc(-c2ccc3nc(N)nn3c2)cs1 [Compound 339]
300	3000	CC(C)(NC(=O)c1cc(-c2ccc3nc(N)nn3c2)cs1)c1ccc(F)cc1 [Compound 308]
17	330	COc1ccc(C(C)(C)NC(=O)c2cc(-c3cc(C(=O)NC(C)C)c4nc(N)nn4c3)cs2)cc1 [Compound 124]
6.9	110	CC(C)NC(=O)c1cc(-c2csc(C(=O)N[C@H]3CCOc4ccccc43)c2)cn2nc(N)nc12 [Compound 120]
5.8	200	C[C@H](NC(=O)c1cc(-c2cc(C(=O)N[C@@H](C)CO)c3nc(N)nn3c2)cs1)c1nc2ccccc2o1 [Compound 100]
460	> 30000	Nc1nc2ccc(-c3csc(C(=O)NCc4cccc(OC(F)(F)F)c4)c3)cn2n1 [Compound 192]
1100	3600	CCc1nnc(-c2cc(-c3csc(C(=O)NCc4ccc(F)cc4)c3)cn3nc(N)nc23)o1 [Compound 395]
970	18000	Nc1nc2ccc(-c3csc(C(=O)NCCc4ccccc4)c3)cn2n1 [Compound 211]
97	3600	Nc1nc2ccc(-c3csc(C(=O)NC4CCOc5ccccc54)c3)cn2n1 (stereo not shown) [Compound 317]
3500	> 30000	COCCCNC(=O)c1cc(-c2ccc3nc(N)nn3c2)cs1 [Compound 271]
580	22000	Nc1nc2ccc(-c3csc(C(=O)NCc4ccccc4C(F)(F)F)c3)cn2n1 [Compound 220]
